Earlier results, collected in patent US20080166406A1, “Rapidly Disintegrating Dosage Form Comprising Magnesium Carbonate Heavy” (priority 2005, published 2008).

Conditions: water, neutral pH, acidic pH; general statement

Cc1cc2c(s1)Nc1ccccc1N=C2N1CCN(C)CC1 [Olanzapine]
Solubility: insoluble in water and neutral pH but more soluble at acidic pH
